Data published in ChEMBL document CHEMBL1153771, “Gamma-lactone carbazoles from Clausena anisata” (2009).
Active and inactive are the calls of the source. The rule behind the calls is not given here.

test system: HL-60; experiment: Cytotoxicity against human HL60 cells assessed as cell viability at 30 uM after 24 hrs by MTS assay; format: functional; conditions: not given

Compound | Activity
COC(=O)c1cc(OC)c2[nH]c3ccccc3c2c1CC=C(C)C | inactive
COC(=O)c1cc(O)c2[nH]c3ccccc3c2c1CC=C(C)C | inactive
COc1cc2[nH]c3ccccc3c2cc1C=O | inactive
COC(=O)c1cc2c(cc1O)[nH]c1ccccc12 | inactive
O=Cc1cc2c(cc1O)[nH]c1ccccc12 | inactive

same assay, conditions: HL-60, 24 h, read-out: Activity

Compound | viability at 30 µM
C=C(C)C1Cc2c(cc(OC)c3[nH]c4ccccc4c23)C(=O)O1 (stereo not drawn) [CLAUSAMINE B] | 80.3%
COC(=O)c1cc(OC)c2[nH]c3ccccc3c2c1/C=C/C(C)(C)O [CLAUSAMINE E] | 47.3%
COc1cc2c(c3c1[nH]c1ccccc13)CC(C(C)(C)O)OC2=O (stereo not drawn) [CLAUSAMINE C] | 79.7%
